Values of other authors in US20060264496A1, “Substituted indoline and indole derivatives” (priority 2003, published 2006).

Experiments:
[1] = tested on: animal models of ethanol withdrawal syndrome
[2] = tested on: electrically induced seizures, seizures induced chemically by pentylenetetrazole, picrotoxin and N-methyl-D-aspartate (NMDA), DBA/2 mouse; details: oral and intraperitoneal administration, rats and mice
amygdala kindling model = details: complex partial seizures
epileptic patients = details: clinical trials
[3] = tested on: K(+) current in neuronal cells
[4] = tested on: animal models of neuropathic pain
[5] = tested on: kainic acid-induced status epilepticus; details: rat, following kainic acid-induced status epilepticus
hippocampal kindling = details: rat
[6] = tested on: animal models of anxiety-like behaviour; details: some animal models

Row | Compound | effect in ethanol withdrawal syndrome models [1] | anticonvulsant activity [2] | activity in amygdala kindling model (amygdala kindling model) | incidence of seizures (epileptic patients) | activation of K(+) current [3] | effect in neuropathic pain models [4] | limbic neurodegeneration and expression of markers of apoptosis [5] | progression of hippocampal kindling (hippocampal kindling) | activity in anxiety-like behaviour models [6]
1 | NCC1(CC(=O)O)CCCCC1 [gabapentin] | very effective | – | – | – | – | – | – | – | –
2 | CCOC(=O)Nc1ccc(NCc2ccc(F)cc2)cc1N [Retigabine, N-(2-amino-4-(4-fluorobenzylamino)-phenyl)carbamic acid ethyl ester] | – | active | active | effectiveness in reducing the incidence of seizures | activate a K(+) current | beneficial | prevent limbic neurodegeneration and the expression of markers of apoptosis | delay the progression of hippocampal kindling | active
